US20240148000A1, “METHOD FOR CONTROLLING HARMFUL ARTHROPODS OR HARMFUL NEMATODES USING ZOANTHAMINE” (SUMITOMO CHEMICAL COMPANY, LIMITED, priority 2021, published 2024)

Tests used:
[1] = system: cotton worm (Spodoptera litura); experiment: Test Method 1: foliar spray on cabbage seedling, cotton worm larvae; assay type: in vivo; conditions: 200 ppm, sprayed 20 mL/seedling on cabbage, third-instar larvae, after 6 days, Formulation Example 5, 25° C.
Procedure: (§1) Next, Test Examples are used to show efficacy of the Present compounds on controlling harmful arthropods and harmful nematodes. The following Test Examples were carried out at 25° C. Also, the “untreated group” represents a group where the similar treatment procedure to that of the treated group except not using the test compound is done.
(§2) Test compound is made to a formulation according to a similar method to that described in the Formulation Example 5, and thereto is added water containing 0.03 v/v % of Shindain (registered trademark) to prepare a diluted solution containing a prescribed concentration of the test compound.
(§3) Cabbage (Brassicae oleracea) seedling (on the developmental stage of the third to fourth true leaf) is planted in a container, and the diluted solutions are sprayed to the seedling at a ratio of 20 mL/seedling. Thereafter, 10 of third-instar larvae of cotton worm (Spodoptera litura) are released. After 6 days, the number of the surviving insects is counted, and the mortality of insects is calculated by the following equation.
(§4) Mortality (%)=(1−Number of surviving insects/10)×100
The test was conducted by making the prescribed concentration 200 ppm and using each of the below-mentioned Present compounds as a test compound according to the Test Method 1.

[2] = system: diamondback moth (Plutella xylostella); experiment: Test Method 2: foliar spray on cabbage seedling, diamondback moth larvae; assay type: in vivo; conditions: third-instar larvae, after 6 days
Procedure: as §1, §2
as §3, with “diamondback moth (Plutella xylostella)” for “cotton worm (Spodoptera litura)”, “released to the container.” for “released.”
as §4
The test was conducted by making the prescribed concentration 200 ppm and using each of the below-mentioned Present compounds as a test compound according to the Test Method 2.
The test was conducted by making the prescribed concentration 500 ppm and using the below-mentioned Present compound as a test compound according to the Test Method 2 except for formulating it according to the Formulation Example 1 instead of the Formulation Example 5.

[3] = system: brown planthoppers (Nilaparvata lugens); experiment: Test Method 5: foliar spray on rice seedling, brown planthoppers; assay type: in vivo; conditions: 200 ppm, sprayed 10 mL/seedling on rice, third-instar larvae, after 6 days
Procedure: as §1
The test compound is made to a formulation according to a similar method to that described in the Formulation Example 5, and thereto is added water containing 0.03 v/v % of Shindain (registered trademark) to prepare a diluted solution containing a prescribed concentration of the test compound.
Rice (Oryza sativa) seedling (on the developmental stage of the second true leaf) is planted in a container, and the diluted solutions are sprayed to the seedling at a ratio of 10 mL/seedling. Thereafter, 20 of third-instar larvae of brown planthoppers (Nilaparvata lugens) are released onto the rice seedling. After 6 days, the number of the surviving insects is examined and the mortality of insects is calculated by the following equation.
Mortality={1−Number of surviving insects/20}×100
The test was conducted by making the prescribed concentration 200 ppm and using each of the below-mentioned Present compounds as a test compound according to the Test Method 5.

[4] = system: common house mosquito (Culex pipiens pallens) last instar larvae; experiment: Test Method 9: common house mosquito larvae in diluted solution; assay type: in vivo; conditions: 3.5 ppm in water, Formulation Example 1, last instar larvae, after 1 day
Procedure: as §1
The test compound is made to a formulation according to a similar method to that described in the Formulation Example 1, and thereto is added water to prepare a diluted solution containing a prescribed concentration of the test compound.
Into the diluted solution, 30 last instar larvae of common house mosquito (Culex pipiens pallens) are released, and after 1 day, the state of the common house mosquito larvae is examined, and the mortality of insects is calculated by the following equation.
(§5) Mortality (%)=(Number of dead insects/Number of tested insects)×100
The test was conducted by making the prescribed concentration 3.5 ppm and using each of the below-mentioned Present compounds as a test compound according to the Test Method 9.

[5] = system: common house mosquito (Culex pipiens pallens) female adults; experiment: Test Method 10: coated container contact test, common house mosquito female adults; assay type: in vivo; conditions: 10 mg/m^2 coated on inner face of container, after 1 day
Procedure: as §1
(§6) The test compound is dissolved into acetone containing a surfactant, then the solution is poured into a 20 mL container, the solution is coated uniformly on the inner face of the container so that the test compound will be 10 mg/m^2 and the surfactant will be 40 mg/m^2, and the container is then dried.
Five (5) common house mosquito (Culex pipiens pallens) female adults are released into the container, and the container is then covered with lid. After the prescribed time, the state of the common house mosquito is examined, and the mortality is calculated by the following equation.
as §5
The test was conducted by making the prescribed time 1 day and using each of the below-mentioned Present compounds as a test compound.

[6] = system: cat flea (Ctenocephalides felis); experiment: Test Method 11: coated container contact test, cat flea adults; assay type: in vivo; conditions: 20 mg/m^2 coated on inner face of container, after 2 days
Procedure: as §1
as §6, with “20” for “10”
Ten (10) cat flea (Ctenocephalides felis) adults are released into the container, and the container is then covered with lid. After the prescribed time, the state of the cat flea is examined, and the mortality is calculated by the following equation.
as §5
The test was conducted by making the prescribed time 2 days and using each of the below-mentioned Present compounds as a test compound.

[7] = system: southern root-knot nematodes (Meloidogyne incognita); experiment: Test Example 12: tomato seedlings in soil contaminated with southern root-knot nematodes; assay type: in vivo; conditions: 60 mg in 60 mL: 20 mL mixed with 400 mL contaminated soil, 40 mL irrigated; tomato roots after 28 days; untreated group 5
Procedure: as §1
The Present compound 1 or 2 (60 mg) was dissolved into acetone (600 μL) containing 5% of Tween 20, and then thereto was added water to prepare a solution (60 mL).
The solution (20 mL) and soil (400 mL) contaminated with southern root-knot nematodes (Meloidogyne incognita) were mixed, and roots of healthy tomato (Lycopersicon esculentum) seedlings (third to fourth leaf stage) were transferred to the soil. Shortly after the transfer, the remaining solution (40 mL) was irrigated to the soil of the tomato seedlings.
After 28 days, the roots were pulled out of the soil, washed with water, and the degree of root damage (degree of root-knot) was investigated according to the Zeck's root-knot index (Zeck, W. M. (1971): Pflanzenschutz-Nachichten. Bayer AG, 24, 141-144.).
• 0: No root-knot is observed. • 1: Several small root-knots can be recognized by careful observation. • 2: Several small root-knots similar to 1 can be easily identified. • 3: There are many small root-knots, and some of which are fused. […]

[8] = system: P388 mouse leukemia cells; conditions: Nonpatent Document 2; cited from earlier work
[9] = 200 ppm, sprayed 20 mL/seedling on cabbage, Formulation Example 5, 25° C.

Molecule	mortality [1] [%]	mortality [2, 9] [%]	mortality [3] [%]	mortality [4] [%]	mortality [5] [%]	mortality [6] [%]	root-knot index (Zeck's root-knot index) [7]	mortality ([2]; 500 ppm, Formulation Example 1 instead of 5, sprayed 20 mL/seedling on cabbage) [%]	growth of P388 mouse leukemia cells [8]
CC1=CC(=O)[C@H]2CC(=O)[C@H]3[C@@](C)(C[C@@]45OC(=O)C[C@]3(C)[C@]4(C)CC[C@]34C[C@@H](C)C[C@H](CN35)O4)[C@@H]2C1 [compound 1]	100	100	100	100	100	100	2 (Several small root-knots similar to 1 can be easily identified.)	–	–
CC1=CC(=O)[C@@H]2[C@@H](C1)[C@]1(C)C[C@@]34OC(=O)C[C@@](C)([C@H]1C(=O)[C@@H]2C)[C@]3(C)CC[C@]12C[C@@H](C)C[C@H](CN14)O2 [compound 2]	100	100	100	100	100	100	2 (Several small root-knots similar to 1 can be easily identified.)	–	–
CC1=CC(=O)[C@H]2CC(=O)[C@H]3[C@@](C)(C(=O)[C@@]45OC(=O)C[C@]3(C)[C@]4(C)CC[C@]34C[C@@H](C)C[C@H](CN35)O4)[C@@H]2C1 [compound 3]	–	–	–	100	–	–	–	–	–
CC1=CC(=O)[C@@H]2[C@@H](C1)[C@]1(C)C(=O)[C@@]34OC(=O)C[C@@](C)([C@H]1C(=O)[C@@H]2C)[C@]3(C)CC[C@]12C[C@@H](C)C[C@H](CN14)O2 [compound 4]	–	–	–	100	–	–	–	80	–
CC1=CC(=O)[C@H]2CC(=O)[C@H]3[C@@](C)(C[C@@]45OC(=O)C[C@]3(C)[C@]4(C)CC[C@]34C[C@@H](C)C[C@H](CN35)O4)[C@@H]2C1.Cl [compound 5]	100	100	100	–	100	–	–	–	–
CC1=CC(=O)[C@@H]2[C@@H](C1)[C@]1(C)C[C@@]34OC(=O)C[C@@](C)([C@H]1C(=O)[C@@H]2C)[C@]3(C)CC[C@]12C[C@@H](C)C[C@H](CN14)O2.Cl [compound 6]	100	100	100	–	100	–	–	–	–
norzoanthamine [Present compound 1]	–	–	–	–	–	–	–	–	inhibits the growth
